Data taken from patent publication US20180070870A1, “Autonomous Sweat Extraction and Analysis Using a Fully-Integrated Wearable Platform” (The Board of Trustees of the Leland Stanford Junior …, priority 2016, published 2018).

Tested on: sweat secretion
Assay: Induced sweat rate profiles stimulated by cholinergic agonist hydrogels under iontophoresis, measured with a sweat rate sensor
Type: in vivo, human
Details: iontophoresis 2 mA for 5 minutes
Experimental: Bars represent values for response latency (time in seconds to onset of secretion from start of iontophoresis), response duration (total time in minutes of secretion above baseline, measurements stopped at 60 minutes), peak secretory rate in response to stimulation, time to reach peak secretory rate and time spent secreting at the peak rate. […] By modulating the formulation of the compounds that are loaded into the iontophoresis hydrogel, we can achieve different patterns of sweat secretion rate. We characterized the induced sweat rate profiles as stimulated by three different cholinergic agonist hydrogels (acetylcholine, methacholine and pilocarpine) each at two different concentrations. For this characterization step, 2 mA of current over duration of 5 minutes was applied using a pair of ring-shaped electrodes (WR Medical Electronics Co., MN, area: 4.3 cm2), with the sweat rate sensor (Q-sweat, WR Medical Electronics Co., MN) mounted on the positive electrode, sealing the stimulated area. […] This pattern is suitable for the case where periodic sweat sampling with short intervals is required. […] To retrieve the induced sweat rate information, immediately after each stimulation step, the stimulated area was wiped dry and sealed with the sweat rate sensor. After each characterization step, the same pair of hydrogels were reused for the subsequent stimulation. […]

Row | Structure (SMILES) | share of the secretion period spent at about the peak rate
1 | CC(=O)OC(C)C[N+](C)(C)C (centres unmarked) [methacholine] | about half
2 | CC[C@@H]1C(=O)OC[C@@H]1Cc1cncn1C [pilocarpine] | about half
